In brackets after ≈: the same amount, converted by molar mass. Like-named read-outs stand apart in the source and are kept apart here. Where only a bound is given, the exact number is not on record here.

Consider seven compounds from patent US8039430B2 (University of Wollongong, priority 2005, dated 2011).

For series [1], the system named is E.f987. The series can be described thus: Antibacterial screening (MIC) of compounds of Example 2, E.f987. It is filed as cell-based, Enterococcus faecium. The conditions noted are these: for Antibacterial activity μg/mL, E.f987: Example 2 compounds, enterococci strain E.f987.
Series [2] relates to Staphylococcus aureus strain ATCC 6538P. Description: Antibacterial screening (MIC) of compounds of Example 2, S. aureus, Mueller-Hinton broth. The class given is cell-based. As to conditions: for MIC: Staphylococcus aureus, ATCC6538P. A digest of the protocol: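 Broth dilution against S. aureus ATCC 6538P in cation-supplemented Mueller-Hinton broth at 37 °C, with inoculated medium shaken 30 min at 130 rpm before serial transfer-dilution of compound. Triplicate vancomycin and compound-negative controls on each plate. MIC is the lowest concentration that prevents bacterial growth.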

In series [3] the test system is E.f243. Description: Antibacterial screening (MIC) of compounds of Example 2, E.f243. The class given is cell-based, Enterococcus faecium. How it is done:
(§1) • All assays used the Staphylococcus aureus strain ATCC 6538P. • Assays described in Chapter 5 additionally used the vancomycin-resistant enterococci and vancomycin-sensitive enterococci strains Ef243, Ef449, Ef820 and Ef487. Culture Media • Mueller-Hinton Broth Medium (MHB): MHB (Oxoid CM405) was prepared with final concentrations of […] MgCl2 and 2 μg/mL CaCl2. Culture medium was pre-warmed for approximately 2-3 h at 37° C. before use. • Mueller-Hinton Agar Medium (MHA): MMB containing 1.5% Agar (Merck Agar 1.01614). Maintenance of Bacteria • From a thawed cryovial, the bacteria was streaked onto MHA and the plate incubated overnight at 37° C. • From this plate, 10 cryovials were prepared by looping several colonies into 0.5 mL of 20% glycerol solution. The cryovials were immediately stored at −140° C. Preparation of Seed Cultures • A cryovial was removed from −140° C. storage and thawed at room temperature. • An MHA plate was streaked with a loopful of bacterial suspension and incubated overnight at 37° C. to create a parent plate (P1). • A daughter plate (D1) was streaked from the parent plate and incubated overnight at 37° C. […] The second parent plate (P2) was used to generate two additional daughter plates using the procedure outlined above before being discarded. • Cryovials were used twice to prepare parent plates (P1 and P2) before being discarded. […] A vancomycin control set (triplicate) and a compound negative control set (triplicate) were also included on each plate (FIG. 1). • The inoculated culture medium was incubated at 37° C. for 30 min, with shaking at 130 rpm. • Using a multichannel pipette, the contents of the first row were mixed before 50 μL was transferred to the second row. The pipette tips were changed and the process repeated by 50 μL of the mixed broth solutions in the second row being transferred to the third row. This process was repeated until the last row contained either the diluted test compound or a control (vancomycin or compound-negative). […] Antibacterial Testing of Compounds of Example 2 Introduction
(§2) The specific testing procedures and protocols are outlined in the section “Antibacterial Screening Methodology for the Compounds of Example 2”.
(§3) Vancomycin was used as the standard/control.

Series [4] addresses T1, HIV integrase enzyme (Human immunodeficiency virus type 1 group M subtype B, UniProt P04585).
T1 construct: against the HIV integrase enzyme
Description: Cross testing of antibacterial compounds for ability to inhibit the HIV integrase enzyme. It is filed as biochemical. The conditions noted are these: Example 2 compounds; compared with lead 88. How it is done: The results for the screening of the four target molecules 165-168 against the HIV integrase enzyme yielded some encouraging results which supported the proposed mechanism of binding in the active binding trench of the HIV integrase enzyme. The testing procedure for the four target compounds differed from the original screening protocols employed. The original screening measured inhibition against the 3′ processing function of the enzyme at the fixed concentration of 50 μg/mL, whereas the four target molecules were tested in an assay adapted from a literature procedure,^107 which measures inhibition against the 3′ strand transfer function of the enzyme. This allows a result to be obtained as an inhibition constant (IC50) concentration, which is the standard measurement of inhibition within the literature. Along with the four target molecules, 88 was also re-tested in the 3′ strand transfer assay to determine the IC50 for direct comparison with the literature.
After these compounds and the computer modelling studies had become established, all compounds that were sent for screening in the antibacterial assay were then also cross tested for their ability to inhibit the HIV integrase enzyme.

Series [5] deals with E.f820. The series can be described thus: Antibacterial screening (MIC) of compounds of Example 2, E.f820. It is filed as cell-based, Enterrococci faecium. The conditions noted are these: for Antibacterial activity μg/mL, E.f820: Example 2 compounds, fully vancomycin-resistant strain E.f820. How it is done:
as §1, §2, §3

For series [6], the system named is E.f449. The series can be described thus: Antibacterial screening (MIC) of compounds of Example 2, E.f449. It is filed as cell-based, Enterococcus faecium. The method, then:
as §1, §2, §3

Series [7] concerns #987 E. faecium van B ST39. The series can be described thus: Antibacterial assay (MIC), VRE strain #987, Enterococossel Broth, Example 1. The class given is cell-based, Enterococcus faecium. As to conditions: Enterococcus faecium, VRE, 24 h, read-out: 987 (minimum inhibitory concentration). A digest of the protocol: (§4)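 Broth microdilution MIC vs E. faecium VRE strains grown in Enterococossel broth, inoculum 1/1000 of overnight culture; compounds tested in triplicate at 125–0.98 ug/ml (2-fold), top-well DMSO 2.5%. Plates incubated 24 h at 37 °C; MIC read as clear well, no pellet and no black colouring of medium.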

For series [8], the system named is #243 E. faecium van B ST17. The series can be described thus: Antibacterial assay (MIC), VRE strain #243, Enterococossel Broth, Example 1. It is filed as cell-based, Enterococcus faecium. The conditions noted are these: Enterococcus faecium, VRE, 24 h, read-out: 243 (minimum inhibitory concentration). A digest of the protocol:
(§5)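 Broth microdilution in Enterococossel Broth, triplicate twofold dilutions from 125 to 0.98 ug/ml, inoculated with 1/1000-diluted overnight E. faecium van B culture. Incubated 24 h at 37° C with slow rotation. MIC read as lowest concentration without pellet or black medium; first-row DMSO 2.5%.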

Series [9] relates to #820 E. faecium van A ST17. The series can be described thus: Antibacterial assay (MIC), VRE strain #820, Enterococossel Broth, Example 1. It is filed as cell-based, Enterococcus faecium. The conditions noted are these: Enterococcus faecium, VRE, 24 h, read-out: 820 (minimum inhibitory concentration). The method, boiled down: as §4
Series [10] has as its system E. faecium (VRE, vanA genes). The conditions noted are these: typical for VRE E. faecium in hospitals; cited from earlier work.
For series [11], the system named is MRSA isolates. As to conditions: 43 MRSA isolates from adults with community respiratory infections; cited from earlier work.
Series [12] relates to Staphylococcus aureus (ATCC 6538P). The series can be described thus: Antibacterial assay (MIC), Staphylococcus aureus ATCC 6538P, Luria Broth, Example 1. The conditions noted are these: Staphylococcus aureus, ATCC6538P, 24 h, read-out: Sa (minimum inhibitory concentration). It is filed as cell-based. A digest of the protocol: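 Broth microdilution in Luria Broth, 2-fold series from 125 to 0.98 ug/ml in triplicate, with 1/1000-diluted overnight culture; up to 2.5% DMSO. Incubated 24 hrs at 37° C with slow rotation; MIC read as lowest concentration giving a clear well without bacterial pellet.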

Series [13] concerns #449 E. faecium van B ST17. The series can be described thus: Antibacterial assay (MIC), VRE strain #449, Enterococossel Broth, Example 1. The class given is cell-based, Enterococcus faecium. As to conditions: Enterococcus faecium, VRE, 24 h, read-out: 449 (minimum inhibitory concentration). A digest of the protocol: as §5
The test system of series [14] is strains of MRSA which have intermediate resistance to glycopeptides. As to conditions: cited from earlier work.
Series [15] has as its system S. aureus. As to conditions: when penicillin was introduced in mid-1940s; cited from earlier work.
Series [16] concerns E. faecium isolate (VanD-type). The conditions noted are these: VanD-type E. faecium isolate from the United States, constitutively resistant; cited from earlier work.

In general, melting point refers to the temperature of the solid-liquid transition. In turn, `C=CCOc1ccc2ccccc2c1-c1c(OCC(=O)N[C@H](CCCNC(=N)N)C(=O)Nc2cccc(C(=O)NO)c2)ccc2ccccc12.Cl` showed a melting point of 158 to 160 °C.

Turning to `CCCOc1ccc2ccccc2c1-c1c(OCC(=O)N[C@H](CCCN)C(=O)Nc2cccc(C(=O)NO)c2)ccc2ccccc12.Cl` [Compound 163], the “Antibacterial activity μg/mL, E.f987” value in [1] is greater than 125 µg/mL. In addition, the “Antibacterial activity μg/mL, S.a” value in series [2] (Example 2 compounds (linear cationic peptides), S. aureus, vancomycin-susceptible strain) came to 15.6 µg/mL. Also, the “Antibacterial activity μg/mL, E.f243” value in series [3] (Example 2 compounds, enterococci strain E.f243) was greater than 125 µg/mL. In [4], the “ability to inhibit the HIV integrase enzyme (in words)” value is “almost as active as the original lead 88”. For the same compound, the “Antibacterial activity μg/mL, E.f820” value in series [5] was greater than 125 µg/mL. The “Antibacterial activity μg/mL, E.f449” value in [6] (Example 2 compounds, enterococci strain E.f449) was greater than 125 µg/mL.

For the compound `CN[C@H](CC(C)C)C(=O)N[C@H]1C(=O)N[C@@H](CC(N)=O)C(=O)N[C@H]2C(=O)N[C@H]3C(=O)N[C@H](C(=O)N[C@H](C(=O)O)c4cc(O)cc(O)c4-c4cc3ccc4O)[C@H](O)c3ccc(c(Cl)c3)Oc3cc2cc(c3O[C@@H]2O[C@H](CO)[C@@H](O)[C@H](O)[C@H]2O[C@H]2C[C@](C)(N)[C@H](O)[C@H](C)O2)Oc2ccc(cc2Cl)[C@H]1O` [Vancomycin, vancomycin, reference compound], the MIC in [1] (Enterococcus faecium, read-out: Antibacterial activity μg/mL, E.f987) is less than 0.98 µg/mL; in [2] (18 h, read-out: Antibacterial activity (MIC μg/mL)) it was 1.25 to 2.5 µg/mL (≈ 0.863 to 1.73 µM); in series [2] (read-out: Antibacterial activity μg/mL, S.a), 1.95 µg/mL (≈ 1.35 µM); in series [7], less than 0.98 µg/mL; in [8] it was less than 0.98 µg/mL; in [3] (Enterococcus faecium, read-out: Antibacterial activity μg/mL, E.f243) it was 1.95 µg/mL (≈ 1.35 µM). In addition, the MIC is greater than 62.6 µg/mL in series [9]; greater than 125 µg/mL in series [5] (read-out: Antibacterial activity μg/mL, E.f820); 0.99 to 15.6 µg/mL (≈ 0.683 to 10.8 µM) in [12]; 62.5 µg/mL (≈ 43.1 µM) in series [6] (Enterococcus faecium, read-out: Antibacterial activity μg/mL, E.f449); 15.7 to 62.5 µg/mL (≈ 10.8 to 43.1 µM) in series [13]. The “Antibacterial activity μg/mL, E.f987” value in series [1] is less than 0.98 µg/mL. In [5], the “Antibacterial activity μg/mL, E.f820” value is greater than 125 µg/mL. Further, the “minimum inhibitory concentrations (MICs)” value in series [10] is greater than 128 µg/mL. Further, the susceptibility rates in [11] is reported as 100%.

As to `Oc1cc(Cl)ccc1Oc1ccc(Cl)cc1Cl` [triclosan], in series [14] (MRSA with intermediate resistance to glycopeptides, decreased susceptibility to biocides), the “minimal bactericidal concns. (MBCs), increased value” is recorded as 3.12 mg 1-1. Also, the “minimal bactericidal concns. (MBCs), starting value” in series [14] (value from which the MBC increased) is listed as 0.002 mg 1-1.

Take gentamicin: the susceptibility rates in series [11] is listed as 86%.

For the compound penicillin, in series [15], the “susceptible S. aureus” value was roughly 94%.

On to teicoplanin, for which the “minimum inhibitory concentrations (MICs)” value in series [10] was greater than 16 µg/mL. Also, in [16], the MIC was 4 µg/mL.
